In patent US20260356856A1, “KRAS G12S AND G12C INHIBITORS” (MIRATI THERAPEUTICS, INC., priority 2023, published 2026):

Assays:
KRas G12C = biological target: T1, KRas G12C (Homo sapiens, UniProt P01116, G12C); assay: KRas binding assay, TR-FRET displacement of Cy5 labelled tracer; details: 60-minute incubation at room temperature, 1% DMSO, pH 7.5
T1 construct: Biotinylated KRas (corresponding to amino acids 1-169, produced at Accelegan Inc.); biotin (biotinylated); purchased Accelegan Inc
In short: (§1)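 Biotinylated KRas (aa 1-169) incubated with Cy5-labelled tracer, terbium streptavidin and compound (1% DMSO final) in 50 mM HEPES pH 7.5, 5 mM MgCl2, 0.005% Tween-20, 1 mM DTT. Tracer displacement read by TR-FRET after 60 min at room temperature; POC values fitted to 4-parameter IC50 equation.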

KRas G12S = biological target: T2, KRas G12S (Homo sapiens, UniProt P01116, G12S); assay: as above; details: 60-minute incubation at room temperature, 1% DMSO, pH 7.5
T2 construct: Biotinylated KRas (corresponding to amino acids 1-169, produced at Accelegan Inc.); biotin (biotinylated); purchased Accelegan Inc
In short: as §1

KRas WT = biological target: T3, KRas WT (Homo sapiens, UniProt P01116); assay: as above; details: 60-minute incubation at room temperature, 1% DMSO, pH 7.5
T3 construct: Biotinylated KRas (corresponding to amino acids 1-169, produced at Accelegan Inc.); biotin (biotinylated); purchased Accelegan Inc
In short: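 TR-FRET tracer-displacement readout after 60 min at room temperature, using KRas residues 1-169 (biotinylated) with terbium streptavidin and a Cy5 tracer. Buffer: 50 mM HEPES pH 7.5, 5 mM MgCl2, 0.005% Tween-20, 1 mM DTT, 1% DMSO final. IC50 from 4-parameter fit of POC data.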

[1] = biological target: T4, KRas-mediated phosphorylation of ERK in MKN1 cells (Homo sapiens, UniProt P01116); assay: Inhibition of KRas-mediated phosphorylation of ERK (HTRF), MKN1 cells; type: cell-based; details: MKN1 cells (KRas WT); HTRF pERK; 3 h incubation
T4 construct: pERK HTRF read-out
Procedure: Inhibition of KRas Phosphorylation of ERK (HTRF) by Exemplary Compounds of Formula (Ia) or (Ib)
Cisbio HTRF Advanced pERK Assay Catalog #64AERPEH • Cells: MKN1, PSN1 • Procedure: • 1. Day 1: Seed 6,000 cells/well −25 μl/well in 384-well white solid bottom plate; RPM1_10% FBS. Incubate overnight at 37 °C/5% CO2. • 2.

[2] = biological target: T5, KRas-mediated phosphorylation of ERK in A549 cells (Homo sapiens, UniProt P01116, G12S); assay: Inhibition of KRas-mediated phosphorylation of ERK (HTRF), A549 cells; type: cell-based; details: HTRF pERK, 3 h incubation
T5 construct: pERK HTRF read-out

[3] = biological target: T6, KRas-mediated phosphorylation of ERK in H358 cells (Homo sapiens, UniProt P01116, G12C); assay: Inhibition of KRas-mediated phosphorylation of ERK (HTRF), H358 cells; type: cell-based; details: HTRF pERK, 3 h incubation
T6 construct: pERK HTRF read-out
T6 sequence (P01116 1-188 isoform P01116-2 G12C): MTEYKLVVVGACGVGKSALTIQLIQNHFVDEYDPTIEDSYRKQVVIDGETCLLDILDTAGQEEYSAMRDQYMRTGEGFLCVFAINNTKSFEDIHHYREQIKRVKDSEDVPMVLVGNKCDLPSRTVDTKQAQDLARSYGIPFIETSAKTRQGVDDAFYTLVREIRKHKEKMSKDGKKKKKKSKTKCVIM

T4 sequence (P01116 1-188 isoform P01116-2): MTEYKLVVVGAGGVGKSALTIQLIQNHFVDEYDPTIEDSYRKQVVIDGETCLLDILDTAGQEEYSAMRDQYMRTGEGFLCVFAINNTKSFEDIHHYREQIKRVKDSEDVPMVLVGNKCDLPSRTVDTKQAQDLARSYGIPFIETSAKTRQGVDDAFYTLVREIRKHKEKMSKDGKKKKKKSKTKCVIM
T2 sequence (P01116 1-169 isoform P01116-2 G12S): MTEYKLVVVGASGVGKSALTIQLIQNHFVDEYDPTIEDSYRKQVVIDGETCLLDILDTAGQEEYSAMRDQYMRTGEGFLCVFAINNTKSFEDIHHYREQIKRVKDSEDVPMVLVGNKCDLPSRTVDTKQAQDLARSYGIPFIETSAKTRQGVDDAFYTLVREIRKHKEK
T3 sequence (P01116 1-169 isoform P01116-2): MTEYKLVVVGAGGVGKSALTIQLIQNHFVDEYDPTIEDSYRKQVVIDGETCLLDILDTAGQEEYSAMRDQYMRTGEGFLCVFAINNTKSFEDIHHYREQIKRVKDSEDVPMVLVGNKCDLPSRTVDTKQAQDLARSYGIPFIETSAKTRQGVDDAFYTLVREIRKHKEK
T5 sequence (P01116 1-188 isoform P01116-2 G12S): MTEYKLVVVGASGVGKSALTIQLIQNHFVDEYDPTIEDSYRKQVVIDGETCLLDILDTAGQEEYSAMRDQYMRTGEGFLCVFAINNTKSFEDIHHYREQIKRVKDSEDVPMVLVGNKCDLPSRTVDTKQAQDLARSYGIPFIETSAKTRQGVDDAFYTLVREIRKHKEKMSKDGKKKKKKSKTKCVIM
T1 sequence (P01116 1-169 isoform P01116-2 G12C): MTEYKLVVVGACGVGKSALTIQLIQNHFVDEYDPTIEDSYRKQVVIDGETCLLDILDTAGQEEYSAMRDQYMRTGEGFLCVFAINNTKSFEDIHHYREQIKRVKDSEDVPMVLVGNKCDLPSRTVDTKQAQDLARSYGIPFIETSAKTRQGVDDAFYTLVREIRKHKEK

Compound | IC50 (KRas G12C) | IC50 (KRas G12S) | IC50 (KRas WT) | IC50 [1] | IC50 [2] | IC50 [3]
CCc1c(F)ccc2cc(O)cc(-c3ncc4c(N5CCC(C(=O)NC(C)=O)CC5)nc(OC[C@@]56CCCN5C[C@H](F)C6)nc4c3F)c12 [Example 212, N-acetyl-1-(7-(8-ethyl-7-fluoro-3-hydroxynaphthalen-1-yl)-8-fluoro-2-(((2R,7aS)-2-fluorotetrahydro-1H-pyrrolizin-7a(5H)-yl)methoxy)pyrido[4,3-d]pyrimidin-4-yl)piperidine-4-carboxamide] | 623 nM | 371 nM | 165 nM | 868 nM | > 10000 nM | 4600 nM
CN(CCNC(=O)n1nccn1)c1nc(OC[C@@]23CCCN2C[C@H](F)C3)nc2c(F)c(-c3ccc(F)c4sc(N)c(C#N)c34)c(Cl)cc12 [Example 213, N-(2-((7-(2-amino-3-cyano-7-fluorobenzo[b]thiophen-4-yl)-6-chloro-8-fluoro-2-(((2R,7aS)-2-fluorotetrahydro-1H-pyrrolizin-7a(5H)-yl)methoxy)quinazolin-4-yl)(methyl)amino)ethyl)-2H-1,2,3-triazole-2-carboxamide] | < 2 nM | 5 nM | 8 nM | 387 nM | 1180 nM | 10 nM
CN(CCCC(=O)Nc1ccccn1)c1nc(OC[C@@]23CCCN2C[C@H](F)C3)nc2c(F)c(-c3ccc(F)c4sc(N)c(C#N)c34)c(Cl)cc12 [Example 214, 4-((7-(2-amino-3-cyano-7-fluorobenzo[b]thiophen-4-yl)-6-chloro-8-fluoro-2-(((2R,7aS)-2-fluorotetrahydro-1H-pyrrolizin-7a(5H)-yl)methoxy)quinazolin-4-yl)(methyl)amino)-N-(pyridin-2-yl)butanamide] | 8 nM | 13 nM | 14 nM | 120 nM | 661 nM | 93 nM
Cc1ccn(C(=O)C2CCCN(c3nc(OC[C@@]45CCCN4C[C@H](F)C5)nc4c(F)c(-c5csc6ccc(N)nc56)c(Cl)cc34)CC2)n1 (stereo partly drawn) [Example 215, (1-(7-(5-aminothieno[3,2-b]pyridin-3-yl)-6-chloro-8-fluoro-2-(((2R,7aS)-2-fluorotetrahydro-1H-pyrrolizin-7a(5H)-yl)methoxy)quinazolin-4-yl)azepan-4-yl)(3-methyl-1H-pyrazol-1-yl)methanone] | 2400 nM | 169 nM | 11400 nM | 3920 nM | 242 nM | > 10000 nM
N#Cc1c(N)sc2c(F)ccc(-c3c(Cl)cc4c(N5CCC[C@H](C(=O)n6ccc(C7CC7)n6)CC5)nc(OC[C@@]56CCCN5C[C@H](F)C6)nc4c3F)c12 [Example 216, 2-amino-4-(6-chloro-4-((S)-4-(3-cyclopropyl-1H-pyrazole-1-carbonyl)azepan-1-yl)-8-fluoro-2-(((2R,7aS)-2-fluorotetrahydro-1H-pyrrolizin-7a(5H)-yl)methoxy)quinazolin-7-yl)-7-fluorobenzo[b]thiophene-3-carbonitrile] | 4 nM | 3 nM | 22 nM | 71 nM | 2 nM | 5 nM
COC(=O)CCCN(C)c1nc(OC[C@@]23CCCN2C[C@H](F)C3)nc2c(F)c(-c3ccc(F)c4sc(N)c(C#N)c34)c(Cl)cc12 [Example 217, methyl 4-((7-(2-amino-3-cyano-7-fluorobenzo[b]thiophen-4-yl)-6-chloro-8-fluoro-2-(((2R,7aS)-2-fluorotetrahydro-1H-pyrrolizin-7a(5H)-yl)methoxy)quinazolin-4-yl)(methyl)amino)butanoate] | 5 nM | 7 nM | 9 nM | 763 nM | 6880 nM | 296 nM
CN(CCCC(=O)Oc1ccccc1F)c1nc(OC[C@@]23CCCN2C[C@H](F)C3)nc2c(F)c(-c3ccc(F)c4sc(N)c(C#N)c34)c(Cl)cc12 [Example 218, 2-fluorophenyl 4-((7-(2-amino-3-cyano-7-fluorobenzo[b]thiophen-4-yl)-6-chloro-8-fluoro-2-(((2R,7aS)-2-fluorotetrahydro-1H-pyrrolizin-7a(5H)-yl)methoxy)quinazolin-4-yl)(methyl)amino)butanoate] | 3 nM | 16 nM | 83 nM | 322 nM | 175 nM | 15 nM

Results, then the compound that gave them:

IC50 (KRas G12C) | IC50 (KRas G12S) | IC50 (KRas WT) | IC50 [1] | IC50 [2] | IC50 [3] | Compound
3 nM | 4 nM | 10 nM | 431 nM | 12 nM | 16 nM | CN(C)CCc1ccn(C(=O)C2CCCN(c3nc(OC[C@@]45CCCN4C[C@H](F)C5)nc4c(F)c(-c5ccc(F)c6sc(N)c(C#N)c56)c(Cl)cc34)CC2)n1 (stereo partly drawn) [Example 219, 2-amino-4-(6-chloro-4-(4-(3-(2-(dimethylamino)ethyl)-1H-pyrazole-1-carbonyl)azepan-1-yl)-8-fluoro-2-(((2R,7aS)-2-fluorotetrahydro-1H-pyrrolizin-7a(5H)-yl)methoxy)quinazolin-7-yl)-7-fluorobenzo[b]thiophene-3-carbonitrile]
209 nM | 153 nM | 160 nM | 258 nM | 336 nM | 449 nM | CC(C)(C)c1ccn(C(=O)C2CCCN(c3nc(OC[C@@]45CCCN4C[C@H](F)C5)nc4c(F)c(-c5ccc(F)c6sc(N)c(C#N)c56)c(Cl)cc34)CC2)n1 (stereo partly drawn) [Example 220, 2-amino-4-(4-(4-(3-(tert-butyl)-1H-pyrazole-1-carbonyl)azepan-1-yl)-6-chloro-8-fluoro-2-(((2R,7aS)-2-fluorotetrahydro-1H-pyrrolizin-7a(5H)-yl)methoxy)quinazolin-7-yl)-7-fluorobenzo[b]thiophene-3-carbonitrile]
43 nM | 11 nM | 101 nM | 409 nM | 26 nM | 485 nM | CCc1c(F)ccc2cc(O)cc(-c3ncc4c(N(C)CCCC(=O)N(C)C(C)=O)nc(OC[C@@]56CCCN5C[C@H](F)C6)nc4c3F)c12 [Example 221, N-acetyl-4-((7-(8-ethyl-7-fluoro-3-hydroxynaphthalen-1-yl)-8-fluoro-2-(((2R,7aS)-2-fluorotetrahydro-1H-pyrrolizin-7a(5H)-yl)methoxy)pyrido[4,3-d]pyrimidin-4-yl)(methyl)amino)-N-methylbutanamide]
18300 nM | 3410 nM | 29600 nM | 8260 nM | 1970 nM | > 10000 nM | Cc1ccn(C(=O)C2CCCN(c3nc(OC[C@@]45CCCN4C[C@H](F)C5)nc4c(F)c(-c5nc(N)ccc5C)c(Cl)cc34)CC2)n1 (stereo partly drawn) [Example 222, (1-(7-(6-amino-3-methylpyridin-2-yl)-6-chloro-8-fluoro-2-(((2R,7aS)-2-fluorotetrahydro-1H-pyrrolizin-7a(5H)-yl)methoxy)quinazolin-4-yl)azepan-4-yl)(3-methyl-1H-pyrazol-1-yl)methanone]
42 nM | 53 nM | 164 nM | 569 nM | 2390 nM | 17 nM | CCc1c(F)ccc2cc(O)cc(-c3ncc4c(N(C)CCN(C)C(=O)n5cncn5)nc(OC[C@@]56CCCN5C[C@H](F)C6)nc4c3F)c12 [Example 223, N-(2-((7-(8-ethyl-7-fluoro-3-hydroxynaphthalen-1-yl)-8-fluoro-2-(((2R,7aS)-2-fluorotetrahydro-1H-pyrrolizin-7a(5H)-yl)methoxy)pyrido[4,3-d]pyrimidin-4-yl)(methyl)amino)ethyl)-N-methyl-1H-1,2,4-triazole-1-carboxamide]
526 nM | 257 nM | 177 nM | 321 nM | 3770 nM | 1330 nM | CCc1c(F)ccc2cc(O)cc(-c3ncc4c(N5CCC(C(=O)N(C)C(=O)C(C)(C)C)CC5)nc(OC[C@@]56CCCN5C[C@H](F)C6)nc4c3F)c12 [Example 224, 1-(7-(8-ethyl-7-fluoro-3-hydroxynaphthalen-1-yl)-8-fluoro-2-(((2R,7aS)-2-fluorotetrahydro-1H-pyrrolizin-7a(5H)-yl)methoxy)pyrido[4,3-d]pyrimidin-4-yl)-N-methyl-N-pivaloylpiperidine-4-carboxamide]
6 nM | 18 nM | 30 nM | 237 nM | 2730 nM | 13 nM | CCc1c(F)ccc2cc(O)cc(-c3ncc4c(N(C)CCNC(=O)n5cncn5)nc(OC[C@@]56CCCN5C[C@H](F)C6)nc4c3F)c12 [Example 225, N-(2-((7-(8-ethyl-7-fluoro-3-hydroxynaphthalen-1-yl)-8-fluoro-2-(((2R,7aS)-2-fluorotetrahydro-1H-pyrrolizin-7a(5H)-yl)methoxy)pyrido[4,3-d]pyrimidin-4-yl)(methyl)amino)ethyl)-1H-1,2,4-triazole-1-carboxamide]
